Data taken from article PMC7377239, “Cardiovascular Effects of Polychlorinated Biphenyls and Their Major Metabolites” (Environmental Health Perspectives, 2020).
Read-outs that look alike come from different tables or passages of the source.

Legend:
[1] = test system: HUVECs; test: High-content imaging cytotoxicity in HUVECs, 24 h; assay type: cell-based, human; conditions: Homo sapiens, HUVEC, 24 h, HUVECs; for viability at 0.01 µM / activity at 0.01 µM / viability at 0.1 µM / activity at 0.1 µM / viability at 1 µM / activity at 1 µM / viability at 10 µM / activity at 10 µM / viability at 100 µM / activity at 100 µM: 0.00 µM = 100.00; for viability at 0.1 µM / activity at 0.1 µM: 0.10 µM; for minimal effective concentration: top concentration 100.00 µM
Procedure: Similar to the cultivation of iCell®-endothelial cells, HUVEC maintenance and experimentation are detailed elsewhere ([Iwata et al. 2017]). Briefly, HUVECs were thawed, seeded, and grown in T75 tissue culture flasks in Medium 199 with EGM™-2 BulletKits™. HUVECs were incubated at regular cell culture conditions, 37°C and 5% CO2 , and passaged every 2–3 d using TrypLE™ Express. To ensure adequate endothelial function, experiments were performed with cells between passages 1 and 5.
Cytotoxicity was assessed in parallel experiments. For iCell®-endothelial cells, 384-well plates were coated with a 30μg/mL fibronectin solution ( 10μL/well ) and incubated for 2 h at RT. iCell®-endothelial cells were dissociated with TrypLE™ Express and prepared into a solution to achieve 750 cells per well and 50μL of total volume. The fibronectin solution was removed from the 384-well plate, and cells were plated. For HUVECs, similar dissociation and the same cell density were used for plating with the exclusion of the fibronectin solution. Cells were incubated at 37°C and 5% CO2 until a monolayer was formed, typically 3–5 d. 2×PCB plates were created with the requisite maintenance medium. Before treatment, the medium in the wells was exchanged to 25μL/well of fresh maintenance medium. 2×PCB chemical solutions ( […] ) were added. After 24 h incubation at 37°C and 5% CO2 , cells were stained with Hoechst 33342, MitoTracker™ Orange, and calcein AM for 20 min before replacing the staining media with FluoroBright DMEM. Cell culture plates were imaged using the ImageXpress® Micro Confocal high-content imaging system (Molecular Devices). Images were acquired at 10× magnification with DAPI, TRITC, or FITC filter (Hoechst 33342, MitoTracker™, or calcein AM, respectively). The multiwavelength cell scoring applications module in MetaXpress™ (Molecular Devices) was used to analyze the images.
(§1) Phenotypic responses were quantitatively assessed using concentration–response modeling as detailed elsewhere ([Sirenko et al. 2017]). Briefly, phenotypic readouts were normalized to vehicle controls and fit to a four-parameter logistic model in R studio software (version 3.1.1; R Development Core Team). Following EPA guidance on dose–response modeling, a cutoff of one standard deviation across means of vehicle control (i.e., 0.5% vol/vol DMSO in cell culture media) wells was applied to determine the point-of-departure (POD) values ([U.S. EPA 2012]). In the absence of a concentration–response, the highest tested concentration (i.e., 100μM ) was assigned as “no observable adverse effect level.” The concentration–response assessment R script, as well as templates for vehicle and concentration–response data, are available as a supplement to Sirenko et al. ([2017]). The ability of physicochemical properties to predict differences in PODs were evaluated by multiregression and mixed-effects modeling using R.

[2] = test system: iCell endothelial cells (human iPSC-derived ECs); test: Tube formation (tubulogenesis) assay in iCell endothelial cells, 18 h; assay type: cell-based; conditions: Homo sapiens, Endothelial cell, iPSC-EC tube formation, 18 hr; for activity at 0.1 µM: 0.10 µM; for minimal effective concentration: top concentration 100.00 µM
Procedure: The culture conditions of iCell®-endothelial cells were as reported elsewhere ([Iwata et al. 2017]). Briefly, T75 flasks were coated with a fibronectin solution ( 3 μg/cm^2 ) followed by incubation for 1–2 h. Cells were thawed for 3 min in a 37°C water bath. Thawed cells were added to maintenance medium made of VascuLife VEGF Medium Complete Kit, excluding the supplied FBS, and iCell® Endothelial Cells Medium Supplement. The final formulation of the maintenance medium is detailed in ([Iwata et al. 2017]). The aliquoted fibronectin solution was aspirated from the T75 flasks, and cells were seeded at 1.0×10^4 cells/cm^2 . Cells were maintained at 37°C and 5% CO2 with media changes occurring every 2 d and passaged every 3–4 d using TrypLE™ Express. All experiments were conducted on cells between passages 1 and 5.
Tube formation assays were performed on Geltrex™ LDEV-free reduced growth factor basement membrane using both iCell®-endothelial cells and HUVECs in 384-well format exactly as detailed in Iwata et al. ([2017]). Negative controls included media-only and vehicle control (i.e., 0.5% vol/vol DMSO in cell culture media) wells. Positive assay controls were consistent with previously published reports ([Iwata et al. 2017]) and included TAB ( 50μM ) as a cytotoxic control, and nocodazole ( 0.01–1μM ), suramin ( 0.5–50μM ), histamine ( 0.1–100μM ), and chloroquine ( 1–500μM ) as chemicals associated with specific effects on ECs. Each test chemical was screened in triplicate for each concentration. Briefly, for iCell®-endothelial cells, starvation media consisted of VascuLife® basal medium with 4 mM L-glutamine LifeFactor and 0.1% iCell®-endothelial cells medium supplement. To counter dilution effects, a 2× concentration of the HUVEC maintenance medium supplemented with additional VEGF was created (EGM™-2 BulletKits™ at 2× concentration; also the VEGF component was replaced with 12.5 ng/mL VEGF). Geltrex™ LDEV-free reduced growth factor basement membrane was thawed overnight and dispensed into 384-well plates ( 10μL/well ) with tapping and rotating to evenly coat. The plates were incubated for 1 h in a cell culture incubator at 37°C and 5% CO2 . A 2× PCB plate (containing all of the PCBs and metabolites in dose–response) was prepared in basal media and added, 25μL per well, to the Geltrex™ coated plates. On separate plates, cells were seeded 7,500 (iPSC- ECs) or 3,500 (HUVEC) cells/well. Cells were exposed to chemicals overnight at 37°C and 5% CO2 and stained with 3× concentration of calcein AM ( 25μL /well, 6μmol/L ) for 15 min before imaging. Images were captured at 4× magnification with the FITC filter (calcein AM). Images were analyzed with the angiogenesis module software within MetaXpress™ (Molecular Devices).
as §1

[3] = 24 hr, read-out: huvec.cyto.24hr
[4] = 24 hr, read-out: huvec.mito.24hr
[5] = 24 hr, read-out: huvec.mitoint.24hr
[6] = 24 hr, read-out: huvec.nma.24hr
[7] = 24 hrs, read-out: huvec.tc.24hrs
[8] = 0.00 µM control = 100.00, read-out: endo.mtl.18hr
[9] = 0.00 µM control = 100.00, read-out: endo.tlps.18hr
[10] = 0.00 µM control = 100.00, read-out: endo.tta.18hr
[11] = 0.00 µM control = 100.00, read-out: endo.ttl.18hr

`Clc1ccc(Cl)c(-c2cc(Cl)ccc2Cl)c1` [PCB52] showed a viability at 0.01 µM [1, 3] of 94.7%, an activity at 0.01 µM [1, 4] of 94.8% and an activity at 0.01 µM [1, 5] of 107%. The activity at 0.01 µM [1, 6] was 101%, the viability at 0.1 µM [1, 3] was 97.3% and the activity at 0.1 µM [1, 4] was 96.5%. It also gave an activity at 0.1 µM [1, 5] of 116%, an activity at 0.1 µM [1, 6] of 97.7% and a viability at 1 µM [1, 3] of 92.5%. The activity at 1 µM [1, 4] was 92%, the activity at 1 µM [1, 5] was 106% and the activity at 1 µM [1, 6] was 100%. The viability at 10 µM [1, 3] was 66.8%, the activity at 10 µM [1, 4] was 60% and the activity at 10 µM [1, 5] was 55.7%. The activity at 10 µM [1, 6] was 74.2%, the viability at 100 µM [1, 3] was 45% and the activity at 100 µM [1, 4] was 20.7%. The activity at 100 µM [1, 5] was 14.1%, the activity at 100 µM [1, 6] was 49.2% and the minimal effective concentration ([1]; 24 hr, read-out: huvec.cyto.24hr POD) was 0.67 µM. The minimal effective concentration ([1]; 24 hr, read-out: huvec.mito.24hr POD) was 0.57 µM, the minimal effective concentration ([1]; 24 hr, read-out: huvec.mitoint.24hr POD) was 6.01 µM and the minimal effective concentration ([1]; 24 hr, read-out: huvec.nma.24hr POD) was 4.97 µM. The viability at 0.01 µM [1, 7] was 94.7%, the viability at 0.1 µM [1, 7] was 97.3% and the viability at 1 µM [1, 7] was 92.5%. The viability at 10 µM [1, 7] was 66.8%, the viability at 100 µM [1, 7] was 45% and the minimal effective concentration ([1]; 24 hrs, read-out: huvec.tc.24hrs POD) was 0.67 µM. The activity at 0.01 µM [2, 8] was 109%, the activity at 0.01 µM [2, 9] was 89.1% and the activity at 0.01 µM [2, 10] was 152%. The activity at 0.01 µM [2, 11] was 156%, the activity at 0.1 µM [2, 8] was 111% and the activity at 0.1 µM [2, 9] was 140%. The activity at 0.1 µM [2, 10] was 108%, the activity at 0.1 µM [2, 11] was 116% and the activity at 1 µM [2, 8] was 107%. For the same compound, the activity at 1 µM [2, 9] was 132%, the activity at 1 µM [2, 10] was 125% and the activity at 1 µM [2, 11] was 133%. For the same compound, the activity at 10 µM [2, 8] was 110%, the activity at 10 µM [2, 9] was 108% and the activity at 10 µM [2, 10] was 119%. It also gave an activity at 10 µM [2, 11] of 120%, an activity at 100 µM [2, 8] of 79% and an activity at 100 µM [2, 9] of 83.4%. It also gave an activity at 100 µM [2, 10] of 89.5%, an activity at 100 µM [2, 11] of 95.5% and a minimal effective concentration ([2]; read-out: endo.mtl.18hr POD) of 79.8 µM. For the same compound, the minimal effective concentration ([2]; read-out: endo.tlps.18hr POD) was 100 µM, the minimal effective concentration ([2]; read-out: endo.tta.18hr POD) was 100 µM and the minimal effective concentration ([2]; read-out: endo.ttl.18hr POD) was 100 µM.
